Test results taken from paper PMC6481345, “A novel anti-melanoma SRC-family kinase inhibitor” (Oncotarget, 2019).

What was measured:
[1] = test system: MCF7 breast cancer cell line; assay: NCI-60 human tumor cell line screen; format: cell-based
Protocol: (§1) We first tested the impact of SAB298 on NCI-60 human tumor cell lines that included eight melanomas (performed by the NCI Development Therapeutics Program).
(§2) SFK-inhibitors were tested on a panel of NCI-60 cell lines (Supplementary Table 1) and 30 melanoma cell lines and NBMEL, i.e., normal human melanocytes isolated from a newborn foreskin (Table 1 and Supplementary Table 2). The Yale melanoma cohort designated YU originated from tumors excised to improve patient quality of life and used with participants’ informed consent according to Health Insurance Portability and Accountability Act (HIPAA) regulations with Human Investigative Committee protocol.
(§3) Supplementary Table 1: Cellular activity of SAB298 in a Panel of NCI-60 cancer cell lines*
(§4) measured protein; and TI is LC50/GI50.
(§5) Supplementary Table 2: Description of Melanoma Cell lines. See Supplementary_Table_2

[2] = test system: MDA-MB-435 melanoma cell line; assay: NCI-60 human tumor cell line screen; format: cell-based
Protocol: as §1, §2, §3, §4, §5

[3] = test system: UACC-62 melanoma cell line; assay: NCI-60 human tumor cell line screen; format: cell-based
Protocol: as §1, §2, §3, §4, §5

HOP-62 NSCLC cell line = assay: NCI-60 human tumor cell line screen; format: cell-based
Protocol: as §1, §2, §3, §4, §5

[4] = test system: MOLT-4 leukemia cell line; assay: NCI-60 human tumor cell line screen; format: cell-based
Protocol: as §1, §2, §3, §4, §5

[5] = test system: LOX IMVI melanoma cell line; assay: NCI-60 human tumor cell line screen; format: cell-based
Protocol: as §1, §2, §3, §4, §5

[6] = test system: KM12 colon cancer cell line; assay: NCI-60 human tumor cell line screen; format: cell-based
Protocol: as §1, §2, §3, §4, §5

[7] = test system: SK-MEL-5 melanoma cell line; assay: NCI-60 human tumor cell line screen; format: cell-based
Protocol: as §1, §2, §3, §4, §5

SR leukemia cell line = assay: NCI-60 human tumor cell line screen; format: cell-based
Protocol: as §1, §2, §3, §4, §5

[8] = test system: SK-MEL-28 melanoma cell line; assay: NCI-60 human tumor cell line screen; format: cell-based
Protocol: as §1, §2, §3, §4, §5

NCI-1460 NSCLC cell line = assay: NCI-60 human tumor cell line screen; format: cell-based
Protocol: as §1, §2, §3, §4, §5

[9] = test system: MALME-3M melanoma cell line; assay: NCI-60 human tumor cell line screen; format: cell-based
Protocol: as §1, §2, §3, §4, §5

[10] = test system: SF-268 CNS cancer cell line; assay: NCI-60 human tumor cell line screen; format: cell-based
Protocol: as §1, §2, §3, §4, §5

[11] = test system: CCRF-CEM leukemia cell line; assay: NCI-60 human tumor cell line screen; format: cell-based
Protocol: as §1, §2, §3, §4, §5

M14 melanoma cell line = assay: NCI-60 human tumor cell line screen; format: cell-based
Protocol: as §1, §2, §3, §4, §5

[12] = test system: SK-MEL-2 melanoma cell line; assay: NCI-60 human tumor cell line screen; format: cell-based
Protocol: as §1, §2, §3, §4, §5

[13] = test system: HCT-116 colon cancer cell line; assay: NCI-60 human tumor cell line screen; format: cell-based
Protocol: as §1, §2, §3, §4, §5

[14] = test system: UACC-257 melanoma cell line; assay: NCI-60 human tumor cell line screen; format: cell-based
Protocol: as §1, §2, §3, §4, §5

[15] = test system: NCI-60 melanoma cell lines; assay: NCI-60 human tumor cell line screen, melanomas (summary); format: cell-based; settings: melanoma cell lines of NCI-60, read-out: IC50, range over cell lines
Protocol: as §1, §2, §3, §4, §5

CSK = CSK (Homo sapiens, UniProt P41240); assay: Radioisotope filter activity assay, recombinant kinase; format: biochemical; parameters: purchased Reaction Biology Corporation; settings: 10 point dose response, 10 µM ATP
CSK, sequence (P41240 whole entry): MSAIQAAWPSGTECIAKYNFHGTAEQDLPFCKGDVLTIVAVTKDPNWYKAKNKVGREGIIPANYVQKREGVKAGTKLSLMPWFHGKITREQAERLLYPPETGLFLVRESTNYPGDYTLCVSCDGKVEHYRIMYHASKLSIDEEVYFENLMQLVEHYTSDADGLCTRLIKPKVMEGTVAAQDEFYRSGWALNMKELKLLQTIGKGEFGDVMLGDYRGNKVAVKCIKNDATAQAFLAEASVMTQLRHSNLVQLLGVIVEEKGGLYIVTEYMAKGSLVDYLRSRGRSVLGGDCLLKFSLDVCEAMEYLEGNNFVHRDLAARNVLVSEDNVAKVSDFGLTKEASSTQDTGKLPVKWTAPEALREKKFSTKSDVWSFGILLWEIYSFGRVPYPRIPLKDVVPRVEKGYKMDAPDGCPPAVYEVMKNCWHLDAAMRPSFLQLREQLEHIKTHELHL
Protocol: (§6) The effect of SAB298 on a panel of 36 recombinant kinases, was screed with the radioisotope filter binding assay employing 10 concentrations of the compound with 10 µM ATP (Reaction Biology Corporation, Malvern, PA). In addition, we tested the endogenous kinome response to SAB298 (0.05 µM, 0.5 µM and 5 µM) in lysates from two melanoma cell lines (YUSIV and YUSIK) employing the KiNativ® platform (ActivX Biosciences Inc., La Jolla, CA). KiNativ® is a robust, high performance mass spectrometry (LC-MS^2) assay that uses biotinylated probes to measure relevant changes in the affinity to the ATP-binding sites of 205 native kinases as a function of cellular context. We also validated SAB298 effect on the activity of SRC-family kinases by probing for phosphorylated Y416, the marker of activated SFKs, with anti-IEDNEpYTAR antibodies (also known as Y419, #2101, Cell Signaling Technology, Beverly, MA). In some cases the cells were incubated overnight with 20 µM proteasome inhibitor MG-132 (CAS 133407-82-6, Millipore Sigma, Burlington, MA) to rescue degradation.
(§7) Supplemntary Table 3: Radioisotope filter activity assay Tests for SAB298 target protein
(§8) *These are results from 10 point dose response test employed with 10 µM ATP. […]
(§9) SRC TRCN0000195339 3ʹUTR […]
(§10) YES TRCN0000001611 CDS […]
(§11) FYN TRCN0000003099 CDS […]
(§12) LY N TRCN0000230901 CDS […]

SRC = SRC (Homo sapiens, UniProt P12931); assay: as above; format: biochemical; parameters: purchased Reaction Biology Corporation; settings: 10 point dose response, 10 µM ATP
SRC, sequence (P12931 whole entry): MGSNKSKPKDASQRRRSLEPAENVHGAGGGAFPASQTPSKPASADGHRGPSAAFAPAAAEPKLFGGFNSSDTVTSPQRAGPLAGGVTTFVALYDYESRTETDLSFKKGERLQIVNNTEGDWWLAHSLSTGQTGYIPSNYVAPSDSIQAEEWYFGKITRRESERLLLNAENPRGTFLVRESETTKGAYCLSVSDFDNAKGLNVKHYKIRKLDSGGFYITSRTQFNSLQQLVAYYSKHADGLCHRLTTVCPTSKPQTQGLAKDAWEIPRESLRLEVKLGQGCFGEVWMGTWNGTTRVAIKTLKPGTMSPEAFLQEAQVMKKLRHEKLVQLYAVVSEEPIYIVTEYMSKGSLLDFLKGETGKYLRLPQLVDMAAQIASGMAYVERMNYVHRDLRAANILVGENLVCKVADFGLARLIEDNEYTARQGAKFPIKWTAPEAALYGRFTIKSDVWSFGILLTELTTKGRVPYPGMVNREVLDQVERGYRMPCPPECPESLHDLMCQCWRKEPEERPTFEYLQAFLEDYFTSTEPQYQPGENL
Protocol: as §6, §7, §8, §9, §10, §11, §12

LYN = LYN (Homo sapiens, UniProt P07948); assay: as above; format: biochemical; parameters: purchased Reaction Biology Corporation; settings: 10 point dose response, 10 µM ATP
LYN, sequence (P07948 whole entry): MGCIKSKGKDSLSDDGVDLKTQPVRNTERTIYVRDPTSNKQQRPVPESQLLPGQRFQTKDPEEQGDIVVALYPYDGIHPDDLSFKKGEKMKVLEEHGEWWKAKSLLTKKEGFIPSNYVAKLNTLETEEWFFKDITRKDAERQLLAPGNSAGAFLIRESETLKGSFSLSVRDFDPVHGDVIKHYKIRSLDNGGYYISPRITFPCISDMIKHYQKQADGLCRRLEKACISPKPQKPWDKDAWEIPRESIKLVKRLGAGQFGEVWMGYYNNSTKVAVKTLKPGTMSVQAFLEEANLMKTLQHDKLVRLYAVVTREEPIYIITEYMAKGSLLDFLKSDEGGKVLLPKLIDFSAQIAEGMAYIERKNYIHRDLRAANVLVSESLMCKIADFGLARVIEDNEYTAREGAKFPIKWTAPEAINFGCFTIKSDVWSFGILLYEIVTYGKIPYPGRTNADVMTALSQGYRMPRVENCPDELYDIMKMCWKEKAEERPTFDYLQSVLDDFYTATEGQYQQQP
Protocol: as §6, §7, §8, §9, §10, §11, §12

LCK = LCK (Homo sapiens, UniProt P06239); assay: as above; format: biochemical; parameters: purchased Reaction Biology Corporation; settings: 10 point dose response, 10 µM ATP
LCK, sequence (P06239 whole entry): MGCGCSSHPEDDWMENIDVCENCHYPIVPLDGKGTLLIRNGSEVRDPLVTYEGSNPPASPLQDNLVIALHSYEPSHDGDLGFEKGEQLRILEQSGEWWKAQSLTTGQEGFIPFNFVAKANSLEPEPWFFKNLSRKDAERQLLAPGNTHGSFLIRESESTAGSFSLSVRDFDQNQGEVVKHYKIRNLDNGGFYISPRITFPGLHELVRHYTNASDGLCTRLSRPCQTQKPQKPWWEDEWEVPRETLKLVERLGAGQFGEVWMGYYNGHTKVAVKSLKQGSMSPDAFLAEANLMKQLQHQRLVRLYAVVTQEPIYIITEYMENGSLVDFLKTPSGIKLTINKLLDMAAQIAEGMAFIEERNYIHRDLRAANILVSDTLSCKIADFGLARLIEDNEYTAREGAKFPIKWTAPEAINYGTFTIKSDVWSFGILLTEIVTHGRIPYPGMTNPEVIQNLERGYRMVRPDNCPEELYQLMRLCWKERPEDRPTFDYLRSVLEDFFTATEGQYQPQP
Protocol: as §6, §7, §8, §9, §10, §11, §12

ABL2 = ABL2 (Homo sapiens, UniProt P42684); assay: as above; format: biochemical; parameters: purchased Reaction Biology Corporation; settings: 10 point dose response, 10 µM ATP
ABL2, sequence (P42684 whole entry): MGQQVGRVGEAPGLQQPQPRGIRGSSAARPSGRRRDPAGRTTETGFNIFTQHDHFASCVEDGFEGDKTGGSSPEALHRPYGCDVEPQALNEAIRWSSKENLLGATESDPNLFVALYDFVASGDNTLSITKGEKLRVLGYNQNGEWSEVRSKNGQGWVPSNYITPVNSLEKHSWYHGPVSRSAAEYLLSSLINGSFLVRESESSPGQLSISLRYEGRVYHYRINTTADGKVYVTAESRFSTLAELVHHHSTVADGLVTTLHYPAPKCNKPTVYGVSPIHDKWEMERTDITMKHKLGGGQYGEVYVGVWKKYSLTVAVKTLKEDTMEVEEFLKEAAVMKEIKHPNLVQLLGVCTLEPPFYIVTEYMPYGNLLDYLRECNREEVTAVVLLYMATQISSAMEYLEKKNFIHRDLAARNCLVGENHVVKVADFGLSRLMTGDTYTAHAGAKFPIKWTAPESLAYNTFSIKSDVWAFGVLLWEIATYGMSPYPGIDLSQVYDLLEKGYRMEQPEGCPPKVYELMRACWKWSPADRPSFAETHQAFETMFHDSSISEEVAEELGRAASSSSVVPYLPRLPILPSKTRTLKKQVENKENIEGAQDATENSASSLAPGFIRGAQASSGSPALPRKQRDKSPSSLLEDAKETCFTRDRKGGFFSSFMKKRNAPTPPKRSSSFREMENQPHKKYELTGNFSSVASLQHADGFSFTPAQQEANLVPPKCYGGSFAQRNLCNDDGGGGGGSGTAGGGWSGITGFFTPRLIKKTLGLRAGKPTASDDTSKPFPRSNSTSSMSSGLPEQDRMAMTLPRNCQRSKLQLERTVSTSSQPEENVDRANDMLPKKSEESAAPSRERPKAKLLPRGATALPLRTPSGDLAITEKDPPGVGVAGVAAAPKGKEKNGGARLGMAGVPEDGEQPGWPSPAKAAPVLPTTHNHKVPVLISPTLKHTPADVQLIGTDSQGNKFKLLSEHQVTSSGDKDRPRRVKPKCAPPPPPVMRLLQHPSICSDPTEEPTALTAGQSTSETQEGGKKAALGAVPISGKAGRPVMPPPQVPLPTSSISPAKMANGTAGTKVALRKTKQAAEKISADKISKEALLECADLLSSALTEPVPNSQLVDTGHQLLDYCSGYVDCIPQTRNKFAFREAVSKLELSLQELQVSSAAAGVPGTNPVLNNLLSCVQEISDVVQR
Protocol: as §6, §7, §8, §9, §10, §11, §12

ERBB2 = ERBB2 (Homo sapiens, UniProt P04626); assay: as above; format: biochemical; parameters: purchased Reaction Biology Corporation; settings: 10 point dose response, 10 µM ATP
ERBB2, sequence (P04626 23-1255): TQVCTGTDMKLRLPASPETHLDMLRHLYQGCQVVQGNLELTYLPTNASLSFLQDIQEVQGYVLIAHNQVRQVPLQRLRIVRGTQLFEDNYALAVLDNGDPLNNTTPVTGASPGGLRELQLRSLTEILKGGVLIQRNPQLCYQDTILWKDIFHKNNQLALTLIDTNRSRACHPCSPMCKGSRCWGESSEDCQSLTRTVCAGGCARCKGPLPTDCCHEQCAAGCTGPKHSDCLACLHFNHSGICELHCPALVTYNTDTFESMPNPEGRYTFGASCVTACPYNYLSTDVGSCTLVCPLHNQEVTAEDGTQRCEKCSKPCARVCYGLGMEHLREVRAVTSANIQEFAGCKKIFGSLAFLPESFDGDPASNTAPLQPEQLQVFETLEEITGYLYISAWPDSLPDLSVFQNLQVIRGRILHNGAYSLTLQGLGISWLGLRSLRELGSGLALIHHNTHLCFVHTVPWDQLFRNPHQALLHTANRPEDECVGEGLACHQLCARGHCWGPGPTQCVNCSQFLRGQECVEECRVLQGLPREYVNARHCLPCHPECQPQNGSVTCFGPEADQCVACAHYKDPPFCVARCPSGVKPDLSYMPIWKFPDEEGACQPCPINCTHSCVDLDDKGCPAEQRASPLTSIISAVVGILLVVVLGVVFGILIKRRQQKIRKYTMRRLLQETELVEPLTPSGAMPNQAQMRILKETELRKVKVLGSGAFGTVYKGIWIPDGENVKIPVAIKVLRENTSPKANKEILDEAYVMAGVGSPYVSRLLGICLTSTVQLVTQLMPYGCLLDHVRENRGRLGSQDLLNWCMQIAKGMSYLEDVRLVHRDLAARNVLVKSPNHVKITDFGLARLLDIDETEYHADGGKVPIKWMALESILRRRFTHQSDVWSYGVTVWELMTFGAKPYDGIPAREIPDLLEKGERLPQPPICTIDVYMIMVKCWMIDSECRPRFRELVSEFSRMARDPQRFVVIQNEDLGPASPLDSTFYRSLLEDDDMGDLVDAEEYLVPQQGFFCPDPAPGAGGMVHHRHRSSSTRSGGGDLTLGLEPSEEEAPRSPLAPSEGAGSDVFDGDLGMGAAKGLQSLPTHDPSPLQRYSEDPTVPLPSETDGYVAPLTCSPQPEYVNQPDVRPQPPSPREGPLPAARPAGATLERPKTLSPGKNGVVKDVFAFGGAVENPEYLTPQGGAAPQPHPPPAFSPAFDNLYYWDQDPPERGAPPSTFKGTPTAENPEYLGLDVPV
Protocol: as §6, §7, §8, §9, §10, §11, §12

YES1 = YES1 (Homo sapiens, UniProt P07947); assay: as above; format: biochemical; parameters: purchased Reaction Biology Corporation; settings: 10 point dose response, 10 µM ATP
YES1, sequence (P07947 whole entry): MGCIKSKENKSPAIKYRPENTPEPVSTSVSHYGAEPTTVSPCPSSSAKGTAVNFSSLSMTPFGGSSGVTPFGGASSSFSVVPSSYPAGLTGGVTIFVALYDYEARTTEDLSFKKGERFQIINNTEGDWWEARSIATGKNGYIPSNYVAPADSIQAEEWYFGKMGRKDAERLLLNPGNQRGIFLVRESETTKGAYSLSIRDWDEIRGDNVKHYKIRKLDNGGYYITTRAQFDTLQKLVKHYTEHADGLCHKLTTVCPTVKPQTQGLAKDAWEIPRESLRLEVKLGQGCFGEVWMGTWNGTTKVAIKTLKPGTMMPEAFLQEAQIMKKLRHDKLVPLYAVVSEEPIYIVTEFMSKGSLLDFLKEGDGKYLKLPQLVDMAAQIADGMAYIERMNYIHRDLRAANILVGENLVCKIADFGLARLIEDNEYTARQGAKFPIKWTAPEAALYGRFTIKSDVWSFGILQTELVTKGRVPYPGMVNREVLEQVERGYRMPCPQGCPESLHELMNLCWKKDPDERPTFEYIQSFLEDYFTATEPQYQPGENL
Protocol: as §6, §7, §8, §9, §10, §11, §12

[16] = 50% growth inhibition, five dose, average of 2 experiments
[17] = cytotoxic concentration, 50% reduction in measured protein, read-out: LC50 (the source's name)

Nc1ncnc2c1c(-c1ccc(Oc3ccccc3)cc1)nn2C[C@@H]1SSC[C@@H]1O [SAB298, (3S, 4S)-3-((4-amino-3-(4-phenoxyphenyl)-1H-pyrazolo[3,4-d]pyrimidin-1-yl)methyl)-1,2-dithiolan-4-ol]
GI50 [1, 16]: 138 nM
CC50 [1, 17]: 53000 nM
GI50 [2, 16]: 103 nM
CC50 [2, 17]: 618 nM
GI50 [3, 16]: 182 nM
CC50 [3, 17]: 872 nM
GI50 (HOP-62 NSCLC cell line; [16]): 227 nM
CC50 (HOP-62 NSCLC cell line; [17]): 23600 nM
GI50 [4, 16]: 32 nM
CC50 [4, 17]: > 100000 nM
GI50 [5, 16]: 170 nM
CC50 [5, 17]: 4560 nM
GI50 [6, 16]: 181 nM
CC50 [6, 17]: 79300 nM
GI50 [7, 16]: 251 nM
CC50 [7, 17]: 2680 nM
GI50 (SR leukemia cell line; [16]): 38 nM
CC50 (SR leukemia cell line; [17]): > 100000 nM
GI50 [8, 16]: 88 nM
CC50 [8, 17]: > 100000 nM
GI50 (NCI-1460 NSCLC cell line; [16]): 29 nM
CC50 (NCI-1460 NSCLC cell line; [17]): 551 nM
GI50 [9, 16]: 550 nM
CC50 [9, 17]: > 100000 nM
GI50 [10, 16]: 38 nM
CC50 [10, 17]: > 100000 nM
GI50 [11, 16]: 61 nM
CC50 [11, 17]: > 100000 nM
GI50 (M14 melanoma cell line; [16]): 21 nM
CC50 (M14 melanoma cell line; [17]): 105 nM
GI50 [12, 16]: 212 nM
CC50 [12, 17]: 19400 nM
GI50 [13, 16]: 134 nM
CC50 [13, 17]: 6520 nM
GI50 [14, 16]: 374 nM
CC50 [14, 17]: 93500 nM
IC50 [15]: 21 to 550 nM
IC50 (CSK): 139 nM
IC50 (SRC): 269 nM
IC50 (LYN): 137 nM
IC50 (LCK): 7.8 nM
IC50 (ABL2): 2560 nM
IC50 (ERBB2): 8860 nM
IC50 (YES1): 0.7 nM
